Experimental data reported in patent US8536180B2, “Pyrimidine inhibitors of kinase activity” (AbbVie Inc., priority 2009, dated 2013).

biological target: T1, C-terminal GST-tagged, recombinant, human IGF-1R, amino acids 954-1367 (Homo sapiens, UniProt P08069); assay: IGF-1R homogenous time-resolved fluorescence (HTRF) in vitro kinase assay; type: biochemical; details: IGF-1R kinase, ATP 50 μM final, biotinylated peptide substrate 0.5 μM, 60 minutes at room temperature
T1 construct: human IGF-1R, amino acids 954-1367 expressed by baculovirus in Sf21 cells; GST (C); purchased Cell Signaling Technology; host or cells: baculovirus in Sf21 cells
Method: IGF-1R kinase activity was assayed by a homogenous time-resolved fluorescence (HTRF) in vitro kinase assay (Mathis, G., HTRF(R) Technology. J Biomol Screen, 1999. 4(6): p. 309-314). Specifically, 10 μL C-terminal GST-tagged, recombinant, human IGF-1R, amino acids 954-1367 expressed by baculovirus in Sf21 cells (Cell Signaling Technology) was mixed with 10 μL inhibitor (various concentrations, 2% final DMSO) and 10 μL of ATP (50 μM final concentration) in reaction buffer (50 mM HEPES, pH 7.5, 10 mM MgCl2, 2 mM MnCl2, 0.1% BSA and 1 mM DTT, 40 μL final volume). The reaction was initiated by addition of 10 μL of biotinylated peptide substrate (Biotin-Ahx-[…], 0.5 μM final concentration) in a black 384-well plate (Packard). After 60 minutes incubation at room temperature, the reaction was quenched by addition of 60 μL stop/revelation buffer to give 30 mM EDTA, 1 μg/mL streptavidin-APC (Prozyme), 50 ng/mL anti-phosphotyrosine mAb PT66-K Europium Cryptate, 30 mM HEPES, pH 7.5, 120 mM KF, 0.005% Tween-20, 0.05% BSA). The quenched reaction was allowed to stand at room temperature for 1 hour and then read in a time-resolved fluorescence detector (Envision, Perkin Elmer) at 615 nm and 665 nm simultaneously. The ratio between the signal of 615 nm and 665 nm was used in the calculation of the IC50.

T1 sequence (P08069 954-1367): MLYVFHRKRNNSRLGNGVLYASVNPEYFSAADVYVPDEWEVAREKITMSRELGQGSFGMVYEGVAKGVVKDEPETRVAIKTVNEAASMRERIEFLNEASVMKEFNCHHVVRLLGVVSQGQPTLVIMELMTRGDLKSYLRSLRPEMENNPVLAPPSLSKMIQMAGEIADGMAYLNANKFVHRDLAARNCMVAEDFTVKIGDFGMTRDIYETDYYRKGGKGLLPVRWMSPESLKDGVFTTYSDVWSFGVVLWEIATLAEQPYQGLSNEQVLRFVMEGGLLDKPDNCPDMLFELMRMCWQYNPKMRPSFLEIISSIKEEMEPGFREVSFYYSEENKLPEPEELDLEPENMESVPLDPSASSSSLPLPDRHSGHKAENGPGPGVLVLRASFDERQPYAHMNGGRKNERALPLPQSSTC

Q: How did the IC50 turn out when `O=c1[nH]cccc1Nc1nccc(-c2c(-c3ccc4[nH]c(Cc5ccccc5)nc4c3)nc3ccccn23)n1` [Example 29, 3-({4-[2-(2-benzyl-1H-benzimidazol-5-yl)imidazo[1,2-a]pyridin-3-yl]pyrimidin-2-yl}amino)pyridin-2(1H)-one] was run?
A: 101 to 500 nM

Q: How did the IC50 turn out when `COc1cc(N2CCC(N(C)C)CC2)ccc1Nc1nccc(-c2c(-c3ccc4nc(Cc5ccccc5)[nH]c4c3)nc3sccn23)n1` [Example 30, 4-[6-(2-benzyl-1H-benzimidazol-6-yl)imidazo[2,1-b][1,3]thiazol-5-yl]-N-{4-[4-(dimethylamino)piperidin-1-yl]-2-methoxyphenyl}pyrimidin-2-amine] was run?
A: < 10 nM

Q: Which IC50 does the source give for `COc1cc(N(C)C)ccc1Nc1nccc(-c2c(-c3ccc4nc(Cc5ccccc5)[nH]c4c3)nc3sccn23)n1` [Example 31, N^1-{4-[6-(2-benzyl-1H-benzimidazol-6-yl)imidazo[2,1-b][1,3]thiazol-5-yl]pyrimidin-2-yl}-2-methoxy-N^4,N^4-dimethylbenzene-1,4-diamine] here?
A: 10 to 50 nM

Q: For `COc1cc(Cl)ccc1Nc1nccc(-c2c(-c3ccc4nc(Cc5ccccc5)[nH]c4c3)nc3ccccn23)n1` [Example 32, 4-[2-(2-benzyl-1H-benzimidazol-6-yl)imidazo[1,2-a]pyridin-3-yl]-N-(4-chloro-2-methoxyphenyl)pyrimidin-2-amine], which IC50 is on record?
A: 101 to 500 nM

Q: Which IC50 does the source give for `COc1cc(N(C)C)ccc1Nc1nccc(-c2c(-c3ccc4nc(Cc5ccccc5Cl)[nH]c4c3)nc3sccn23)n1` [Example 33, N^1-(4-{6-[2-(2-chlorobenzyl)-1H-benzimidazol-6-yl]imidazo[2,1-b][1,3]thiazol-5-yl}pyrimidin-2-yl)-2-methoxy-N^4,N^4-dimethylbenzene-1,4-diamine] here?
A: 10 to 50 nM

Q: Which IC50 does the source give for `COc1ccccc1Cc1nc2ccc(-c3nc4sccn4c3-c3ccnc(Nc4ccc(N(C)C)cc4OC)n3)cc2[nH]1` [Example 34, 2-methoxy-N^1-(4-{6-[2-(2-methoxybenzyl)-1H-benzimidazol-6-yl]imidazo[2,1-b][1,3]thiazol-5-yl}pyrimidin-2-yl)-N^4,N^4-dimethylbenzene-1,4-diamine] here?
A: 10 to 50 nM

Q: With `OCCn1cc(Nc2nccc(-c3c(-c4ccc5[nH]c(-c6ccccc6)nc5c4)nc4ccccn34)n2)cn1` [Example 36, 2-[4-({4-[2(2-phenyl-1H-benzimidazol-5-yl)imidazo[1,2-a]pyridin-3-yl]pyrimidin-2-yl}amino)-1H-pyrazol-1-yl]ethanol] as the molecule, how does the IC50 read?
A: 10 to 50 nM

Q: With `OCCn1cc(Nc2nccc(-c3c(-c4ccc5[nH]c(Cc6ccccc6)nc5c4)nc4ccccn34)n2)cn1` [Example 37, 2-[4-({4-[2(2-benzyl-1H-benzimidazol-5-yl)imidazo[1,2-a]pyridin-3-yl]pyrimidin-2-yl}amino)-1H-pyrazol-1-yl]ethanol] as the molecule, how does the IC50 read?
A: 10 to 50 nM

Q: For `Fc1ccc(Nc2nccc(-c3c(-c4ccc5nc(-c6ccccc6)[nH]c5c4)nc4ccccn34)n2)cc1` [Example 38, N-(4-fluorophenyl)-4-[2-(2-phenyl-1H-benzimidazol-6-yl)imidazo[1,2-a]pyridin-3-yl]pyrimidin-2-amine], which IC50 is on record?
A: 101 to 500 nM

Q: With `Fc1ccc(Nc2nccc(-c3c(-c4ccc5[nH]c(Cc6ccccc6)nc5c4)nc4ccccn34)n2)cc1` [Example 39, 4-[2-(2-benzyl-1H-benzimidazol-5-yl)imidazo[1,2-a]pyridin-3-yl]-N-(4-fluorophenyl)pyrimidin-2-amine] as the molecule, how does the IC50 read?
A: 51 to 100 nM

Q: For `Fc1ccc(Nc2nccc(-c3c(-c4ccc5nc(-c6ccccc6)[nH]c5c4)nc4ccccn34)n2)c(F)c1` [Example 40, N-(2,4-difluorophenyl)-4-[2-(2-phenyl-1H-benzimidazol-6-yl)imidazo[1,2-a]pyridin-3-yl]pyrimidin-2-amine], which IC50 is on record?
A: > 500 nM

Q: Which IC50 does the source give for `Fc1ccc(Nc2nccc(-c3c(-c4ccc5[nH]c(Cc6ccccc6)nc5c4)nc4ccccn34)n2)c(F)c1` [Example 41, 4-[2-(2-benzyl-1H-benzimidazol-5-yl)imidazo[1,2-a]pyridin-3-yl]-N-(2,4-difluorophenyl)pyrimidin-2-amine] here?
A: 101 to 500 nM

Q: How did the IC50 turn out when `FC(F)(F)c1ccccc1Cc1nc2ccc(-c3nc4sccn4c3-c3ccnc(Nc4ccccc4CN4CCCC4)n3)cc2[nH]1` [Example 42, N-[2-(pyrrolidin-1-ylmethyl)phenyl]-4-(6-{2-[2-(trifluoromethyl)benzyl]-1H-benzimidazol-6-yl}imidazo[2,1-b][1,3]thiazol-5-yl)pyrimidin-2-amine] was run?
A: > 500 nM

Q: With `COc1ccc(S(C)(=O)=O)cc1Nc1nccc(-c2c(-c3ccc4nc(Cc5ccccc5)[nH]c4c3)nc3ccccn23)n1` [Example 43, 4-[2-(2-benzyl-1H-benzimidazol-6-yl)imidazo[1,2-a]pyridin-3-yl]-N-[2-methoxy-5-(methylsulfonyl)phenyl]pyrimidin-2-amine] as the molecule, how does the IC50 read?
A: 10 to 50 nM

Q: How did the IC50 turn out when `Cn1cc(Nc2nccc(-c3c(-c4ccc5[nH]c(-c6ccccc6)nc5c4)nc4ccccn34)n2)cn1` [Example 44, N-(1-methyl-1H-pyrazol-4-yl)-4-[2-(2-phenyl-1H-benzimidazol-5-yl)imidazo[1,2-a]pyridin-3-yl]pyrimidin-2-amine] was run?
A: > 500 nM

Q: `COc1ccc(C(F)(F)F)cc1Nc1nccc(-c2c(-c3ccc4nc(Cc5ccccc5)[nH]c4c3)nc3ccccn23)n1` [Example 45, 4-[2-(2-benzyl-1H-benzimidazol-6-yl)imidazo[1,2-a]pyridin-3-yl]-N-[2-methoxy-5-(trifluoromethyl)phenyl]pyrimidin-2-amine] was tested. Which IC50 did it give?
A: 101 to 500 nM

Q: With `CN(C)Cc1ccc(Nc2nccc(-c3c(-c4ccc5nc(Cc6ccccc6C(F)(F)F)[nH]c5c4)nc4sccn34)n2)cc1` [Example 46, N-{4-[(dimethylamino)methyl]phenyl}-4-(6-{2-[2-(trifluoromethyl)benzyl]-1H-benzimidazol-6-yl}imidazo[2,1-b][1,3]thiazol-5-yl)pyrimidin-2-amine] as the molecule, how does the IC50 read?
A: 10 to 50 nM

Q: `COc1cc(NCC(C)(C)O)ccc1Nc1nccc(-c2c(-c3ccc4[nH]c(Cc5ccccc5)nc4c3)nc3ccccn23)n1` [Example 47, 1-{[4-({4-[2-(2-benzyl-1H-benzimidazol-5-yl)imidazo[1,2-a]pyridin-3-yl]pyrimidin-2-yl}amino)-3-methoxyphenyl]amino}-2-methylpropan-2-ol] was tested. Which IC50 did it give?
A: 10 to 50 nM

Q: `COc1cc(N(C)CCO)ccc1Nc1nccc(-c2c(-c3ccc4nc(Cc5ccccc5)[nH]c4c3)nc3ccccn23)n1` [Example 48, 2-[[4-({4-[2-(2-benzyl-1H-benzimidazol-6-yl)imidazo[1,2-a]pyridin-3-yl]pyrimidin-2-yl}amino)-3-methoxyphenyl](methyl)amino]ethanol] was tested. Which IC50 did it give?
A: 10 to 50 nM

Q: `COc1cc(NCC(=O)O)ccc1Nc1nccc(-c2c(-c3ccc4[nH]c(Cc5ccccc5)nc4c3)nc3ccccn23)n1` [Example 49, N-[4-({4-[2-(2-benzyl-1H-benzimidazol-5-yl)imidazo[1,2-a]pyridin-3-yl]pyrimidin-2-yl}amino)-3-methoxyphenyl]glycine] was tested. Which IC50 did it give?
A: 10 to 50 nM

Q: `COc1ccc(CN(C)CCO)cc1Nc1nccc(-c2c(-c3ccc4nc(Cc5ccccc5)[nH]c4c3)nc3ccccn23)n1` [Example 50, 2-[[3-({4-[2-(2-benzyl-1H-benzimidazol-6-yl)imidazo[1,2-a]pyridin-3-yl]pyrimidin-2-yl}amino)-4-methoxybenzyl](methyl)amino]ethanol] was tested. Which IC50 did it give?
A: 10 to 50 nM

Q: How did the IC50 turn out when `CN(C)CC(=O)Nc1cccc(Nc2nccc(-c3c(-c4ccc5nc(Cc6ccccc6)[nH]c5c4)nc4ccccn34)n2)c1` [Example 51, N^1-[3-({4-[2-(2-benzyl-1H-benzimidazol-6-yl)imidazo[1,2-a]pyridin-3-yl]pyrimidin-2-yl}amino)phenyl]-N^2,N^2-dimethylglycinamide] was run?
A: < 10 nM

Q: With `COc1cc(N2CCC(N(C)C)CC2)ccc1Nc1nccc(-c2c(-c3ccc4nc(Cc5ccccc5C(F)(F)F)[nH]c4c3)nc3sccn23)n1` [Example 52, N-{4-[4-(dimethylamino)piperidin-1-yl]-2-methoxyphenyl}-4-(6-{2-[2-(trifluoromethyl)benzyl]-1H-benzimidazol-6-yl}imidazo[2,1-b][1,3]thiazol-5-yl)pyrimidin-2-amine] as the molecule, how does the IC50 read?
A: < 10 nM

Q: How did the IC50 turn out when `COc1ccc(NC(=O)CN(C)C)cc1Nc1nccc(-c2c(-c3ccc4nc(Cc5ccccc5)[nH]c4c3)nc3ccccn23)n1` [Example 53, N^1-[3-({4-[2-(2-benzyl-1H-benzimidazol-6-yl)imidazo[1,2-a]pyridin-3-yl]pyrimidin-2-yl}amino)-4-methoxyphenyl]-N^2,N^2-dimethylglycinamide] was run?
A: < 10 nM

Q: `COc1cc(N2CCC(N(C)C)CC2)ccc1Nc1nccc(-c2c(-c3ccc4nc(Cc5ccccc5Cl)[nH]c4c3)nc3sccn23)n1` [Example 54, 4-{6-[2-(2-chlorobenzyl)-1H-benzimidazol-6-yl]imidazo[2,1-b][1,3]thiazol-5-yl}-N-{4-[4-(dimethylamino)piperidin-1-yl]-2-methoxyphenyl}pyrimidin-2-amine] was tested. Which IC50 did it give?
A: < 10 nM
